Assay results from US6551774B1, “Diagnostic methods for conditions associated with elevated cellular levels of telomerase activity” (Board of Regents, The University of Texas System, priority 1992, dated 2003).

Legend:
Tetrahymena cells [1] = assay: Progeny formation (cycloheximide resistance) of Tetrahymena conjugated in the presence of analog; type: cell-based, Tetrahymena thermophila; settings: for # CHX-R: number of cycloheximide-resistant wells
Description: For analysis of cycloheximide (CHX) sensitivity of cells conjugated in the presence of analog, 50 ml cultures of each cell type were grown overnight in 2% PPYS, starved in Dryl's for 18 hours, mated (5×10^5 cells/ml) for 6 hours, then analog was added. Cells were allowed to complete mating in the presence of the analog. Twenty-four hours after mixing, cells were diluted in Dryl's solution, counted and plated at 1 cell per well of 96-well plates in 1% PPYS without analog. Cells were grown for 4 days in a humid chamber at 30° C., without shaking. Cells were then replica plated into 1% PPYS plus 15 μg/ml cycloheximide, allowed to grow for four days before scoring, and percent of CHX-resistant wells was calculated. Because generation of progeny expressing the cycloheximide marker requires successful production of a new macronucleus, cells whose macronuclear development was disrupted by the analog are killed in CHX.
This process involves de novo formation of new macronuclear telomeres in the progeny cells. Macronuclear development in ciliated protozoans such as Tetrahymena involves developmentally programmed, site-specific fragmentation of germline chromosomes into linear subchromosomes, whose ends are healed by de novo addition of telomeres. […] Because of the immediate requirement for telomere addition to fragmented DNA, it is possible that the latter process might be more sensitive to telomerase inhibition than telomere maintenance during vegetative growth. To test whether nucleoside analogs cause inhibition of macronuclear development due to a disruption of telomere formation, we mated two strains of Tetrahymena which are sensitive to cycloheximide, but whose progeny after mating are resistant to cycloheximide. Synchronized mated cells were treated with AZT at concentrations ranging from 10 μM to 5 mM for a period beginning just prior to when macronuclear development begins and continuing during macronuclear development (the period 6-24 hours after mating was initiated). […] In attempts to maximize the effect of AZT, cells were either refed at 6 hrs with 2% PPYS or Isobroth, or starved until 24 hrs (the duration of the AZT treatment). Such starvation arrests macronuclear development at an intermediate stage. When refed, macronuclear development would then be forced to proceed in the presence of the AZT. Control, unmated parental cells were also plated and exposed to drug.

Tetrahymena cells [2] = assay: Growth, morphology and senescence of Tetrahymena mass-transfer cultures with nucleoside analogs; type: cell-based, Tetrahymena thermophila
Description: For analysis of macronuclear DNA from cultures containing the nucleoside analog AZT (Sigma), or controls lacking analog, at various timepoints during vegetative divisions, cells from stationary stock cultures were inoculated into 25 ml thymine-deficient Iso-sensitest broth (‘Isobroth’, Oxoid USA) in 250 ml flasks. Cultures were incubated at 30° C. with shaking (100 rpm) for 48 hours. Cells were counted and plated at 1000 cells/1.5 ml in 24-well plates (Falcon) and grown at 30° C., without shaking, for 48 hours. 5 μl of these log phase cells were used to inoculate 1 ml cultures (Isobroth) containing varied concentrations of nucleoside analog. Thereafter, every 2-4 days cells were transferred, either 5 μl per well, or 1-3 μl using a multi-pronged replicator into fresh 1 ml broth containing AZT. Remaining cells were pelleted and stored at −80° C. until processed for DNA analysis.
For analysis of macronuclear DNA from vegetative cultures containing the nucleoside analogs Ara-G (Calbiochem), ddG (Calbiochem), or ddI (Calbiochem), or controls lacking analog, stock cultures were grown overnight in 2% PPYS as described. Cells were counted and plated at 100 cells/2 ml in 2% PPYS containing varied amounts of analog, 1% DMSO (Fisher) (as a control for ddG and Ara-G), or 2% PPYS alone. Cells were replica plated into fresh medium every 2-6 days, and remaining cells were pelleted and stored at −80° C. until processed for DNA analysis.
To test whether such a phenotype could be produced by inhibitors of telomerase in Tetrahymena, duplicate log-phase cultures were grown for prolonged periods in the presence of varying concentrations of analogs. The growth and cell morphology of these cultures were monitored, and DNA was isolated at different times for telomere length analysis. […] From growth rate measurements it was calculated that the cells went through 150 to 250 cell generations in the course of this 50 day period.

[3] = tested on: lymphoma cell line JY 616; assay: Growth of cultured JY lymphoma cells with potential telomerase inhibitors; type: cell-based, human; settings: 50 μM; normal rate until week 3
Description: (§1) The effect of the agents on telomerase activity in intact cells was then studied utilizing the lymphoma cell line JY 616 which were maintained in RPMI 1640 with […] Hepes, 10% FCS, and penicillin/streptomycin (Gibco). The cells were cultured in 6-well plates (Falcon) with 5.0 ML of medium per well in duplicate. Cells were passaged every 7-10 days which corresponded to 5-7 mean population doublings (MPD), and seeded at 3×10^4 cells per well into fresh medium containing analog or control. Cell viability was monitored prior to harvest utilizing trypan blue stain (Gibco) during counting with a hemocytometer. The average ratio of stained: unstained cells (dead:alive) was […]. The intactness of the DNA was measured on a parallel gel by observing its mobility in a gel prior to digestion by a restriction enzyme.

[4] = tested on: lymphoma cell line JY 616; assay: Telomere length of JY lymphoma cells by Southern blot; type: cell-based, human; settings: AZT treated cells, week 3
Description: The first lane is DNA from the cells at the start of the experiment, the second is the RPMI control, and the third is cells treated with AZT for the times indicated.
Cells were treated over a 10 week period with either 10 μM ddG in 0.01% DMSO or medium with 0.01% DMSO only.
as §1

## Cc1cn([C@H]2C[C@H](N=[N+]=[N-])[C@@H](CO)O2)c(=O)[nH]c1=O [AZT]
Tetrahymena cells [1]; 0.01 mM analog (head prints MM), first block for the analog
  % CHX-R: 72%
Tetrahymena cells [1]; 0.01 mM analog (head prints MM), second block for the analog
  % CHX-R: 73%
Tetrahymena cells [1]; 0.01 mM analog, first block for the analog
  # CHX-R: 121
Tetrahymena cells [1]; 0.01 mM analog, second block for the analog
  # CHX-R: 67
Tetrahymena cells [1]; 0.1 mM analog (head prints MM), first block for the analog
  % CHX-R: 68%
Tetrahymena cells [1]; 0.1 mM analog (head prints MM), second block for the analog
  % CHX-R: 67%
Tetrahymena cells [1]; 0.1 mM analog, first block for the analog
  # CHX-R: 100
Tetrahymena cells [1]; 0.1 mM analog, second block for the analog
  # CHX-R: 128
Tetrahymena cells [1]; 1.0 mM analog (head prints MM), first block for the analog
  % CHX-R: 55%
Tetrahymena cells [1]; 1.0 mM analog (head prints MM), second block for the analog
  % CHX-R: 48%
Tetrahymena cells [1]; 1.0 mM analog, first block for the analog
  # CHX-R: 91
Tetrahymena cells [1]; 1.0 mM analog, second block for the analog
  # CHX-R: 60
Tetrahymena cells [1]; 5.0 mM analog (head prints MM), first block for the analog
  % CHX-R: 63%
Tetrahymena cells [1]; 5.0 mM analog (head prints MM), second block for the analog
  % CHX-R: 53%
Tetrahymena cells [1]; 5.0 mM analog, first block for the analog
  # CHX-R: 75
Tetrahymena cells [1]; 5.0 mM analog, second block for the analog
  # CHX-R: 89
Tetrahymena cells [1]; analog present during conjugation
  irreversible disruption of macronuclear development: little or no irreversible disruption
Tetrahymena cells [2]; 5 or 10 mM in Isobroth medium
  effect on cell growth and survival: strongly inhibited cell growth and killed cells within a day
Tetrahymena cells [2]; up to 1 mM in Isobroth, 50-day continuous growth, ˜10^3 cells per transfer
  senescence of cultures: did not result in senescence
[3]
  cell growth: ceased proliferating
[4]
  mean telomere length compared to the control medium: marked decrease in mean telomere length
